Experimental data reported in US9834554B2, “BTK inhibitors” (MERCK SHARP & DOHME CORP., priority 2013, dated 2017).

Each molecule was assayed against BTK enzyme (recombinant full-length BTK, hBTK) (Homo sapiens (Human), UniProt Q06187) (assay: Btk enzyme activity assay, LANCE TR-FRET). Conditions: not given.
Sequence of BTK enzyme (recombinant full-length BTK, hBTK) (Q06187 whole entry): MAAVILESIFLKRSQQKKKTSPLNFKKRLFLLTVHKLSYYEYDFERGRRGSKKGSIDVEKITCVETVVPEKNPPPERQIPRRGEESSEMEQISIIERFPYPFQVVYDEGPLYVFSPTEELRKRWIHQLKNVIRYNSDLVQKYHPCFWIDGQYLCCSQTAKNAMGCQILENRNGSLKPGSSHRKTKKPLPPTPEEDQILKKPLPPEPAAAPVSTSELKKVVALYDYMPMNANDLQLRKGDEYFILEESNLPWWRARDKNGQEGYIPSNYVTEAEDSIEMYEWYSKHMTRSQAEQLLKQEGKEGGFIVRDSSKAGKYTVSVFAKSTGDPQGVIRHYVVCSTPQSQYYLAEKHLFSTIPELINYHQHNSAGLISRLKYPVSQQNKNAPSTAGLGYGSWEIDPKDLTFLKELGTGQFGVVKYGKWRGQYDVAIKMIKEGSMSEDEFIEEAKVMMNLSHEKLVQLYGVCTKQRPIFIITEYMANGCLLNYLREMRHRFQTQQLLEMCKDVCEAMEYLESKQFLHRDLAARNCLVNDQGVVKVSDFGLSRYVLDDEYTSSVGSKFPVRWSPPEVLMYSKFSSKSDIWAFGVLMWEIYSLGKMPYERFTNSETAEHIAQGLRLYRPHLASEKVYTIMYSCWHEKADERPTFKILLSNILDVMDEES

Question: Which IC50 does the source give for `N#CC1(C(=O)N2CCC[C@@H](c3nn(-c4ccc(C(=O)Nc5cc(C(F)(F)F)ccn5)cc4)c4c(N)nccc34)C2)CC1` [Example 27, 4-(7-amino-3-{(3R)-1-[(1-cyanocyclopropyl)carbonyl]piperidin-3-yl}-1H-pyrazolo[3,4-c]pyridin-1-yl)-N-[4-(trifluoromethyl)pyridin-2-yl]benzamide] here?
Answer: 2.2 nM

Question: For `Nc1nccc2c([C@@H]3CC[C@H]4CCC(=O)N4C3)nn(-c3ccc(C(=O)Nc4cc(C(F)(F)F)ccn4)cc3)c12` [Example 38, 4-{7-amino-3-[(6R,8aS)-3-oxooctahydroindolizin-6-yl]-1H-pyrazolo[3,4-c]pyridin-1-yl}-N-[4-(trifluoromethyl)pyridin-2-yl]benzamide], which IC50 is on record?
Answer: 0.17 nM

Same assay, conditions: read-out: BTK binding IC50; 50 pM hBTK, 2 μM biotin-A5-peptide, 25 μM ATP; 60 minute compound & enzyme incubation

Question: `Nc1nccc2c([C@@H]3CCCN(C(=O)C4(O)CC4)C3)nn(-c3ccc(C(=O)Nc4cc(C(F)(F)F)ccn4)cc3)c12` [Example 25, 4-(7-amino-3-{(3R)-1-[(1-hydroxycyclopropyl)carbonyl]piperidin-3-yl}-1H-pyrazolo[3,4-c]pyridin-1-yl)-N-[4-(trifluoromethyl)pyridin-2-yl]benzamide] was tested. Which IC50 did it give?
Answer: 0.59 nM

Question: For `Nc1nccc2c([C@@H]3CC[C@H]4CCC(=O)N4C3)nn(-c3ccc(C(=O)Nc4cc(C(F)(F)F)ccn4)cc3OC3CC3)c12` [Example 39, 4-{7-amino-3-[(6R,8aS)-3-oxooctahydroindolizin-6-yl]-1H-pyrazolo[3,4-c]pyridin-1-yl}-3-(cyclopropyloxy)-N-[4-(trifluoromethyl)pyridin-2-yl] benzamide], which IC50 is on record?
Answer: 2.8 nM

Question: Which IC50 does the source give for `COCC(=O)N1CCO[C@@H](c2nn(-c3ccc(C(=O)Nc4cc(OC)ccn4)cc3)c3c(N)nccc23)C1` [Example 7, 4-{7-amino-3-[(2R)-4-(methoxyacetyl)morpholin-2-yl]-1H-pyrazolo[3,4-c]pyridin-1-yl}-N-(4-methoxypyridin-2-yl)benzamide] here?
Answer: 25.2 nM

Question: How did the IC50 turn out when `COc1ccnc(NC(=O)c2ccc(-n3nc([C@@H]4CCCN(C(=O)C(C)(CO)CO)C4)c4ccnc(N)c43)cc2)c1` [Example 29, (R)-4-(7-amino-3-(1-(3-hydroxy-2-(hydroxymethyl)-2-methylpropanoyl)piperidin-3-yl)-1H-pyrazolo[3,4-c]pyridin-1-yl)-N-(4-methoxypyridin-2-yl)benzamide 2,2,2-trifluoroacetate] was run?
Answer: 1.6 nM

Question: For `Cc1noc(C)c1C(=O)N1CCC[C@@H](c2nn(-c3ccc(C(=O)Nc4cc(C(F)(F)F)ccn4)cc3)c3c(N)nccc23)C1` [Example 15, 4-(7-amino-3-{(3R)-1-[(3,5-dimethylisoxazol-4-yl)carbonyl]piperidin-3-yl}-1H-pyrazolo[3,4-c]pyridin-1-yl)-N-[4-(trifluoromethyl)pyridin-2-yl]benzamide], which IC50 is on record?
Answer: 5.3 nM

Question: `CCC(=O)N1CCC[C@@H](c2nn(-c3ccc(C(=O)Nc4cc(C(F)(F)F)ccn4)cc3)c3c(N)nccc23)C1` [Example 11, 4-{7-amino-3-[(3R)-1-propanoylpiperidin-3-yl]-1H-pyrazolo[3,4-c]pyridin-1-yl}-N-[4-(trifluoromethyl)pyridin-2-yl]benzamide] was tested. Which IC50 did it give?
Answer: 0.57 nM

Question: How did the IC50 turn out when `COc1ccnc(NC(=O)c2ccc(-n3nc([C@@H]4CCCN(C(=O)C5(C)COC5)C4)c4ccnc(N)c43)cc2)c1` [Example 28, (R)-4-(7-amino-3-(1-(3-methyloxetane-3-carbonyl)piperidin-3-yl)-1H-pyrazolo[3,4-c]pyridin-1-yl)-N-(4-methoxypyridin-2-yl)benzamide 2,2,2-trifluoroacetate] was run?
Answer: 0.49 nM

Question: `CC1(C(=O)N2CCO[C@@H](c3nn(-c4ccc(C(=O)Nc5cc(C(F)(F)F)ccn5)cc4)c4c(N)nccc34)C2)COC1` [Example 1, (R)-4-(7-amino-3-(4-(3-methyloxetane-3-carbonyl)morpholin-2-yl)-1H-pyrazolo[3,4-c]pyridin-1-yl)-N-(4-(trifluoromethyl)pyridin-2-yl)benzamide] was tested. Which IC50 did it give?
Answer: 2.2 nM

Question: `C[C@H]1CC[C@@H](c2nn(-c3ccc(C(=O)Nc4cc(C5CC5)ccn4)cc3)c3c(N)nccc23)CN1C(=O)C1(C)COC1` [Example 30, 4-(7-amino-3-((3R,6S)-6-methyl-1-(3-methyloxetane-3-carbonyl)piperidin-3-yl)-1H-pyrazolo[3,4-c]pyridin-1-yl)-N-(4-cyclopropylpyridin-2-yl)benzamide] was tested. Which IC50 did it give?
Answer: 0.98 nM

Question: How did the IC50 turn out when `CC1(C(=O)N2CCC[C@@H](c3nn(-c4ccc(C(=O)Nc5cc(C(F)(F)F)ccn5)cc4)c4c(N)nccc34)C2)CC1` [Example 26, 4-(7-amino-3-{(3R)-1-[(1-methylcyclopropyl)carbonyl]piperidin-3-yl}-1H-pyrazolo[3,4-c]pyridin-1-yl)-N-[4-(trifluoromethyl)pyridin-2-yl]benzamide] was run?
Answer: 0.81 nM

Question: How did the IC50 turn out when `CO[C@@H](C)C(=O)N1C[C@H](c2nn(-c3ccc(C(=O)Nc4cc(C5CC5)ccn4)cc3)c3c(N)nccc23)CC[C@@H]1C` [Example 33, 4-(7-amino-3-{(3R,6S)-1-[(2S)-2-methoxypropanoyl]-6-methylpiperidin-3-yl}-1H-pyrazolo[3,4-c]pyridin-1-yl)-N-(4-cyclopropylpyridin-2-yl)benzamide] was run?
Answer: 2 nM

Question: With `C[C@H]1CC[C@@H](c2nn(-c3ccc(C(=O)Nc4cccc(OC5CC5)c4)cc3)c3c(N)nccc23)CN1C(=O)C1CC1` [Example 34, 4-(7-amino-3-((3R,6S)-1-(cyclopropanecarbonyl)-6-methylpiperidin-3-yl)-1H-pyrazolo[3,4-c]pyridin-1-yl)-N-(3-cyclopropoxyphenyl)benzamide] as the molecule, how does the IC50 read?
Answer: 0.87 nM

Question: With `CC(=O)N1CCC[C@@H](c2nn(-c3ccc(C(=O)Nc4cc(C(F)(F)F)ccn4)cc3)c3c(N)nccc23)C1` [Example 21, 4-{3-[(3R)-l-acetylpiperidin-3-yl]-7-amino-1H-pyrazolo[3,4-c]pyridin-1-yl}-N-[4-(trifluoromethyl)pyridin-2-yl]benzamide] as the molecule, how does the IC50 read?
Answer: 0.53 nM

Question: With `COc1ccnc(NC(=O)c2ccc(-n3nc([C@H]4CN(C(C)=O)CCO4)c4ccnc(N)c43)cc2)c1` [Example 6, 4-{3-[(2R)-4-acetylmorpholin-2-yl]-7-amino-1H-pyrazolo[3,4-c]pyridin-1-yl}-N-(4-methoxypyridin-2-yl)benzamide] as the molecule, how does the IC50 read?
Answer: 28.8 nM

Question: How did the IC50 turn out when `COCCC(=O)N1CCC[C@@H](c2nn(-c3ccc(C(=O)Nc4cc(C(F)(F)F)ccn4)cc3)c3c(N)nccc23)C1` [Example 16, 4-{7-amino-3-[(3R)-1-(3-methoxypropanoyl)piperidin-3-yl]-1H-pyrazolo[3,4-c]pyridin-1-yl}-N-[4-(trifluoromethyl)pyridin-2-yl]benzamide] was run?
Answer: 0.51 nM

Question: How did the IC50 turn out when `COCC(=O)N1CCC[C@@H](c2nn(-c3ccc(C(=O)Nc4cc(C(F)(F)F)ccn4)cc3)c3c(N)nccc23)C1` [Example 18, 4-{7-amino-3-[(3R)-1-(methoxyacetyl)piperidin-3-yl]-1H-pyrazolo[3,4-c]pyridin-1-yl}-N-[4-(trifluoromethyl)pyridin-2-yl]benzamide] was run?
Answer: 0.9 nM

Question: `COc1cc(C(=O)Nc2cccc(C(F)(F)F)c2)ccc1-n1nc([C@@H]2CC[C@H](C)N(C(=O)C3CC3)C2)c2ccnc(N)c21` [Example 37, 4-(7-amino-3-((3R,6S)-1-(cyclopropanecarbonyl)-6-methylpiperidin-3-yl)-1H-pyrazolo[3,4-c]pyridin-1-yl)-3-methoxy-N-(3-(trifluoromethyl)phenyl)benzamide] was tested. Which IC50 did it give?
Answer: 2.1 nM

Question: How did the IC50 turn out when `Nc1nccc2c([C@@H]3CCCN(C(=O)c4cnon4)C3)nn(-c3ccc(C(=O)Nc4cc(C(F)(F)F)ccn4)cc3)c12` [Example 13, 4-{7-amino-3-[(3R)-1-(1,2,5-oxadiazol-3-ylcarbonyl)piperidin-3-yl]-1H-pyrazolo[3,4-c]pyridin-1-yl}-N-[4-(trifluoromethyl)pyridin-2-yl]benzamide] was run?
Answer: 4.7 nM

Question: For `CC(C)C(=O)N1CCC[C@@H](c2nn(-c3ccc(C(=O)Nc4cc(C(F)(F)F)ccn4)cc3)c3c(N)nccc23)C1` [Example 19, 4-{7-amino-3-[(3R)-1-(2-methylpropanoyl)piperidin-3-yl]-1H-pyrazolo[3,4-c]pyridin-1-yl}-N-[4-(trifluoromethyl)pyridin-2-yl]benzamide], which IC50 is on record?
Answer: 1.2 nM

Question: For `Cc1n[nH]cc1C(=O)N1CCC[C@@H](c2nn(-c3ccc(C(=O)Nc4cc(C(F)(F)F)ccn4)cc3)c3c(N)nccc23)C1` [Example 10, 4-(7-amino-3-{(3R)-1-[(3-methyl-1H-pyrazol-4-yl)carbonyl]piperidin-3-yl}-1H-pyrazolo[3,4-c]pyridin-1-yl)-N-[4-(trifluoromethyl)pyridin-2-yl]benzamide], which IC50 is on record?
Answer: 0.71 nM

Question: `Nc1nccc2c([C@@H]3CCCN(C(=O)C4CC4(F)F)C3)nn(-c3ccc(C(=O)Nc4cc(C(F)(F)F)ccn4)cc3)c12` (stereo partly drawn) [Example 12, 4-(7-amino-3-{(3R)-1-[(2,2-difluorocyclopropyl)carbonyl]piperidin-3-yl}-1H-pyrazolo[3,4-c]pyridin-1-yl)-N-[4-(trifluoromethyl)pyridin-2-yl]benzamide] was tested. Which IC50 did it give?
Answer: 3 nM

Question: With `Nc1nccc2c([C@@H]3CCCN(C(=O)C4CC4)C3)nn(-c3ccc(C(=O)Nc4cc(C(F)(F)F)ccn4)cc3)c12` [Example 24, 4-{7-amino-3-[(3R)-1-(cyclopropylcarbonyl)piperidin-3-yl]-1H-pyrazolo[3,4-c]pyridin-1-yl}-N-[4-(trifluoromethyl)pyridin-2-yl]benzamide] as the molecule, how does the IC50 read?
Answer: 0.86 nM

Question: For `COCCOCC(=O)N1CCC[C@@H](c2nn(-c3ccc(C(=O)Nc4cc(C(F)(F)F)ccn4)cc3)c3c(N)nccc23)C1` [Example 23, 4-(7-amino-3-{(3R)-1-[(2-methoxyethoxy)acetyl]piperidin-3-yl}-1H-pyrazolo[3,4-c]pyridin-1-yl)-N-[4-(trifluoromethyl)pyridin-2-yl]benzamide], which IC50 is on record?
Answer: 1.2 nM

Question: How did the IC50 turn out when `CC(=O)N1CCO[C@@H](c2nn(-c3ccc(C(=O)Nc4cc(C(F)(F)F)ccn4)cc3)c3c(N)nccc23)C1` [Example 2, 4-{3-[(2R)-4-acetylmorpholin-2-yl]-7-amino-1H-pyrazolo[3,4-c]pyridin-1-yl}-N-[4-(trifluoromethyl)pyridin-2-yl] benzamide] was run?
Answer: 2.9 nM

Question: How did the IC50 turn out when `CCOc1cc(C(=O)Nc2cc(C(F)(F)F)ccn2)ccc1-n1nc([C@@H]2CC[C@H]3CCC(=O)N3C2)c2ccnc(N)c21` [Example 41, 4-{7-amino-3-[(6R,8aS)-3-oxooctahydroindolizin-6-yl]-1H-pyrazolo[3,4-c]pyridin-1-yl}-3-ethoxy-N-[4-(trifluoromethyl)pyridin-2-yl] benzamide] was run?
Answer: 0.44 nM
